25 molecules from patent publication US11634396B2 (priority 2021, dated 2023) can be followed below.

The structures appear in SMILES notation. pIC50: −log10 of the molar value. Where two headings read alike, the source gives them in different places. Where only a bound is given, the exact number is not on record here.

The test has as its target human mOR (Homo sapiens (Human), UniProt P35372). Nature of the test: cell-based. As to the method: CHO Tag-lite human mOR stable cell line from Cisbio (NCBI accession number: NM_000914.3, Bedford, Mass.) were seeded and grown to approximately 80% confluence in Ham F-12 with 10% FBS, 50 U/ml penicillin, 50 μg/ml streptomycin, 2 mM Hepes, and 1 mg/ml geneticin (Invitrogen, Carlsbad, Calif.). Cells were then harvested using accutase (Corning. Coming, N.Y.), centrifuged at 1300 RPM for 5 min, and plated at 5000 cells per 5 μL per well in a 5× dilution of stimulation buffer consisting of the HTRF cAMP Gi kit, water and IBMX at 0.5 mM (Cisbio, Bedford, Mass.) in white HTRF low volume 384 well plates (Cisbio, Bedford, Mass.). Plates were then incubated at 37° C. in 5% CO2 for 10 minutes. For the agonist assay, forskolin was added to a final concentration of 4 μM. […] Test compounds were dissolved in DMSO and water, and then serially diluted to working concentrations such that the concentration of DMSO was less than 0.1%. Diluted test compounds were added at 2.5 μL per well, and plates were incubated at 37° C., and 5% CO2 for 15 minutes, and then at room temperature for 15 minutes. Next 5 μl/well of cAMP Eu-cryptate and 5 μl/well of anti-cAMP-d2 (both diluted 1:20 in lysis buffer) were added, and plates were incubated at room temperature for 1 hour. Following incubation, plates were read in a Synergy Neo2 multi-mode reader (Biotek, Winooski, Vt.). […] For the agonist assay, data was normalized using the maximal DAMGO response. Measurements were performed in triplicate and the dose response was fit using nonlinear regression.

The mark [1] stands for this setting: CHO Tag-lite human mOR stable cell line, forskolin 4 μM and DAMGO at EC90, read-out: mOR cAMP Antagonist Assay IC50.

Chain of human mOR (P35372 whole entry): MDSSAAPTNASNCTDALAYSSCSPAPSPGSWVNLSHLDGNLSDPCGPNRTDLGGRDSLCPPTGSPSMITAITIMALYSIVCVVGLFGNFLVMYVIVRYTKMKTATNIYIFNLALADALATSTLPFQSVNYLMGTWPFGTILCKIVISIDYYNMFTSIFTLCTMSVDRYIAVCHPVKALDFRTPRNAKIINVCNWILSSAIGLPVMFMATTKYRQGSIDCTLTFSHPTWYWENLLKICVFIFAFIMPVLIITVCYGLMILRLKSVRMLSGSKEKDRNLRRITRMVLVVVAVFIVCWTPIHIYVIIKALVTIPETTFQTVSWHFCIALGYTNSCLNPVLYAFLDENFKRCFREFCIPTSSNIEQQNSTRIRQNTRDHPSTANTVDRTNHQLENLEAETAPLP

Regarding `CNC(=O)c1ccc(C[C@@H](CNC(=O)C[C@@H](c2ccncc2)C2(C(F)(F)F)CC2)N(C)C)c(Cl)c1F` (single isomer, unassigned) [Compound 111], the pIC50 under setting [1] was > 6.52.
Take `CNC(=O)c1ccc(C[C@@H](CNC(=O)CC(c2cccnc2)C2(C(F)(F)F)CC2)N(C)C)c(Cl)c1F` (stereo in doubt) [Compound 109, 3-chloro-4-((S)-2-(dimethylamino)-3-((S)-3-(pyridin-3-yl)-3-(1-(trifluoromethyl)cyclopropyl)propanamido)propyl)-2-fluoro-N-methylbenzamide]: the pIC50 is > 6.52.
On the same count and under the same terms, to `CNC(=O)c1ccc(C[C@@H](CNC(=O)CC(c2cccnc2)C2(C(F)(F)F)CC2)N(C)C)c(C)c1F` (stereo in doubt) [Compound 124, 4-((S)-2-(dimethylamino)-3-((S)-3-(pyridin-3-yl)-3-(1-(trifluoromethyl)cyclopropyl)propanamido)propyl)-2-fluoro-N,3-dimethylbenzamide] belongs < 5.52; to `CNC(=O)c1ccc(C[C@@H](CNC(=O)CC(c2ccncc2)C2(C(F)(F)F)CC2)N(C)C)c(C)c1` (stereo in doubt) [Compound 130, 4-((S)-2-(dimethylamino)-3-((S)-3-(pyridin-4-yl)-3-(1-(trifluoromethyl)cyclopropyl)propanamido)propyl)-N,3-dimethylbenzamide], > 6.52; to `Cc1ncc([C@@H](CC(=O)NC[C@H](Cc2ccc(C(N)=O)c(F)c2F)N(C)C)C2(C(F)(F)F)CC2)s1` [Compound 1, 4-((S)-2-(dimethylamino)-3-((S)-3-(2-methylthiazol-5-yl)-3-(1-(trifluoromethyl)cyclopropyl)propanamido)propyl)-2,3-difluorobenzamide], > 6.52.
Turning to `CN(C)[C@H](CNC(=O)C[C@H](c1cncs1)C1(C(F)(F)F)CC1)Cc1ccc(C(N)=O)c(F)c1F` [Compound 2, 4-((S)-2-(dimethylamino)-3-((S)-3-(thiazol-5-yl)-3-(1-(trifluoromethyl)cyclopropyl)propanamido)propyl)-2,3-difluorobenzamide], the pIC50 under setting [1] is > 6.52.
For `Cc1ncc([C@@H](CC(=O)NC[C@H](Cc2ccc(C(N)=O)c(F)c2F)N(C)C)C2(C(F)(F)F)CC2)cn1` [Compound 3, 4-((S)-2-(dimethylamino)-3-((R)-3-(2-methylpyrimidin-5-yl)-3-(1-(trifluoromethyl)cyclopropyl)propanamido)propyl)-2,3-difluorobenzamide], the negative-log IC50 (pIC50) was > 6.52.
Still for that read-out and setting: to `Cc1ccc([C@@H](CC(=O)NC[C@H](Cc2ccc(C(N)=O)c(F)c2F)N(C)C)C2(C(F)(F)F)CC2)cn1` [Compound 4, 4-((S)-2-(dimethylamino)-3-((R)-3-(6-methylpyridin-3-yl)-3-(1-(trifluoromethyl)cyclopropyl)propanamido)propyl)-2,3-difluorobenzamide] belongs > 6.52.
Regarding `CN(C)[C@H](CNC(=O)C[C@@H](c1ncc(Cl)cn1)C1(C(F)(F)F)CC1)Cc1cc(F)c(C(N)=O)cc1F` [Compound 5, 4-[(2S)-3-[(3R)-3-(5-chloropyrimidin-2-yl)-3-[1-(trifluoromethyl)cyclopropyl]propanamido]-2-(dimethylamino)propyl]-2,5-difluorobenzamide], the pIC50 is 5.52 to 6.52.
On the same count and under the same terms, in the case of `Cc1ncc([C@@H](CC(=O)NC[C@H](Cc2ccc(C(N)=O)c(F)c2Cl)N(C)C)C2(C(F)(F)F)CC2)s1` [Compound 16, 3-chloro-4-[(2S)-2-(dimethylamino)-3-[(3S)-3-(2-methyl-1,3-thiazol-5-yl)-3-[1-(trifluoromethyl)cyclopropyl]propanamido]propyl]-2-fluorobenzamide] it was > 6.52.
With `CN(C)[C@H](CNC(=O)CC(c1ccncc1)C1(C(F)(F)F)CC1)Cc1ccc(C(N)=O)c(F)c1Cl` (stereo partly drawn) [Compound 19, 3-chloro-4-[(2S)-2-(dimethylamino)-3-[3-(pyridin-4-yl)-3-[1-(trifluoromethyl)cyclopropyl]propanamido]propyl]-2-fluorobenzamide], the pIC50 was > 6.52.
Same read-out and setting: in the case of `CN(C)[C@H](CNC(=O)CC(c1ccncc1)C1(C(F)(F)F)CC1)Cc1ccc(C(N)=O)cc1Cl` (stereo partly drawn) [Compound 26, 3-chloro-4-[(2S)-2-(dimethylamino)-3-[3-(pyridin-4-yl)-3-[1-(trifluoromethyl)cyclopropyl]propanamido]propyl]benzamide] it was > 6.52; in that of `CN(C)[C@H](CNC(=O)CC(c1ncccn1)C1(C(F)(F)F)CC1)Cc1ccc(C(N)=O)cc1Cl` (stereo partly drawn) [Compound 27, 3-chloro-4-((2S)-2-(dimethylamino)-3-(3-(pyrimidin-2-yl)-3-(1-(trifluoromethyl)cyclopropyl)propanamido)propyl)benzamide], > 6.52.
Still for that read-out and setting: in the case of `CN(C)c1ncc(C(CC(=O)NC[C@H](Cc2ccc(C(N)=O)cc2Cl)N(C)C)C2(C(F)(F)F)CC2)cn1` (stereo partly drawn) [Compound 29, 3-chloro-4-[(2S)-2-(dimethylamino)-3-{3-[2-(dimethylamino)pyrimidin-5-yl]-3-[1-(trifluoromethyl)cyclopropyl]propanamido}propyl]benzamide] it was > 6.52; in that of `CN(C)[C@H](CNC(=O)CC(c1cncnc1)C1(C(F)(F)F)CC1)Cc1ccc(C(N)=O)cc1Cl` (stereo partly drawn) [Compound 30, 3-chloro-4-[(2S)-2-(dimethylamino)-3-[3-(pyrimidin-5-yl)-3-[1-(trifluoromethyl)cyclopropyl]propanamido]propyl]benzamide], > 6.52; in that of `CN(C)[C@H](CNC(=O)CC(c1ncc(Cl)cn1)C1(C(F)(F)F)CC1)Cc1ccc(C(N)=O)cc1Cl` (stereo partly drawn) [Compound 31, 3-chloro-4-[(2S)-3-[3-(5-chloropyrimidin-2-yl)-3-[1-(trifluoromethyl)cyclopropyl]propanamido]-2-(dimethylamino)propyl]benzamide], > 6.52.
Still for that read-out and setting: in the case of `Cc1ncc([C@@H](CC(=O)NC[C@H](Cc2ccc(C(N)=O)c(F)c2C)N(C)C)C2CC2)cn1` [Compound 42, 4-((S)-3-((S)-3-cyclopropyl-3-(2-methylpyrimidin-S-yl)propanamido)-2-(dimethylamino)propyl)-2-fluoro-3-methylbenzamide] it was < 5.52.
As for `Cc1ncc([C@@H](CC(=O)NC[C@H](Cc2ccc(C(N)=O)c(F)c2C)N(C)C)C2(C(F)(F)F)CC2)s1` [Compound 43, 4-((S)-2-(dimethylamino)-3-((S)-3-(2-methylthiazol-5-yl)-3-(1-(trifluoromethyl)cyclopropyl)propanamido)propyl)-2-fluoro-3-methylbenzamide], the pIC50 was > 6.52.
Turning to `Cc1ncc([C@@H](CC(=O)NC[C@H](Cc2ccc(C(N)=O)c(F)c2C)N(C)C)C2(C(F)(F)F)CC2)cn1` [Compound 44, 4-((S)-2-(dimethylamino)-3-((R)-3-(2-methylpyrimidin-5-yl)-3-(1-(trifluoromethyl)cyclopropyl)propanamido)propyl)-2-fluoro-3-methylbenzamide], the pIC50 is > 6.52.
Still for that read-out and setting: in the case of `Cc1c(C[C@@H](CNC(=O)C[C@@H](c2cncc(F)c2)C(C)(C)C)N(C)C)ccc(C(N)=O)c1F` [Compound 45, 4-((S)-2-(dimethylamino)-3-((R)-3-(5-fluoropyridin-3-yl)-4,4-dimethylpentanamido)propyl)-2-fluoro-3-methylbenzamide] it was > 6.52.
For `Cc1ccc([C@@H](CC(=O)NC[C@H](Cc2ccc(C(N)=O)c(F)c2C)N(C)C)C2(C(F)(F)F)CC2)cn1` [Compound 46, 4-((S)-2-(dimethylamino)-3-((R)-3-(6-methylpyridin-3-yl)-3-(1-(trifluoromethyl)cyclopropyl)propanamido)propyl)-2-fluoro-3-methylbenzamide], the pIC50 is > 6.52.
For the molecule `Cc1ccc([C@@H](CC(=O)NC[C@H](Cc2cc(F)c(C(N)=O)c(F)c2)N(C)C)C2(C(F)(F)F)CC2)cn1` [Compound 47, 4-((S)-2-(dimethylamino)-3-((R)-3-(6-methylpyridin-3-yl)-3-(1-(trifluoromethyl)cyclopropyl)propanamido)propyl)-26-difluorobenzamide], the pIC50 was > 6.52.
Still for that read-out and setting: in the case of `Cc1ncc([C@@H](CC(=O)NC[C@H](Cc2cc(F)c(C(N)=O)c(F)c2)N(C)C)C2(C(F)(F)F)CC2)cn1` [Compound 48, 4-((S)-2-(dimethylamino)-3-((R)-3-(2-methylpyrimidin-5-yl)-3-(1-(trifluoromethyl)cyclopropyl)propanamido)propyl)-2,6-difluorobenzamide] it was < 5.52.
The same measure, in the same setting: to `CN(C)[C@H](CNC(=O)CC(c1cccnc1)C1(C(F)(F)F)CC1)Cc1cc(F)c(C(N)=O)c(F)c1` (stereo partly drawn) [Compound 50, 4-[(2S)-2-(dimethylamino)-3-[3-(pyridin-3-yl)-3-[1-(trifluoromethyl)cyclopropyl]propanamido]propyl]-2,6-difluorobenzamide] belongs < 5.52; to `CN(C)[C@H](CNC(=O)C[C@H](c1ccoc1)C1(C(F)(F)F)CC1)Cc1ccc(C(N)=O)c(F)c1` [Compound 51, 4-((S)-2-(dimethylamino)-3-((R)-3-(furan-3-yl)-3-(1-(trifluoromethyl)cyclopropyl)propanamido)propyl)-2-fluorobenzamide], > 6.52.
